Results published in ChEMBL document CHEMBL5634125, “Investigation of novel 5'-amino adenosine derivatives with potential anti-Zika virus activity” (Eur J Med Chem, 2023).
Calls of active or inactive are those of the source. No cut-off for these calls is given here.

Key:
Zika virus [1] = experiment: Antiviral activity against Zika virus infected in golden hamster BHK cells assessed as inhibition of virus induced cytopathic effect incubated for 6 to 8 days by CellTiter-Glo luminescent cell viability assay; assay type: functional, organism-based
Zika virus [2] = experiment: Antiviral activity against Zika virus infected in golden hamster BHK-21 cells assessed as inhibition of viral replication incubated for 72 hrs by Dual-luciferase reporter assay system; assay type: functional, organism-based; details: BHK-21, 72 h
Zika virus [3] = experiment: Inhibition of Zika virus NS5 MTase activity at 50 uM by chemiluminescence-based enzymatic assay system relative to control
[4] = Half-life in ICR mouse at 25 mg/kg, po administered as single dose and measured upto 24 hrs by LC-MS/MS analysis; assay type: ADME, organism-based; details: in vivo
[5] = Tmax in ICR mouse at 25 mg/kg, po administered as single dose and measured upto 24 hrs by LC-MS/MS analysis; assay type: ADME, organism-based; details: in vivo
[6] = Cmax in ICR mouse at 25 mg/kg, po administered as single dose and measured upto 24 hrs by LC-MS/MS analysis; assay type: ADME, organism-based; details: in vivo
[7] = AUC (0 to t) in ICR mouse at 25 mg/kg, po administered as single dose and measured upto 24 hrs by LC-MS/MS analysis; assay type: ADME, organism-based; details: in vivo
[8] = MRT in ICR mouse at 25 mg/kg, po administered as single dose and measured upto 24 hrs by LC-MS/MS analysis; assay type: ADME, organism-based; details: in vivo
[9] = Acute toxicity in A129 mouse assessed as animal death at 50 mg/kg, po measured after 2 weeks; assay type: organism-based; details: in vivo, 336 h
[10] = Acute toxicity in A129 mouse assessed as animal death at 100 mg/kg, po measured after 2 weeks; assay type: organism-based; details: in vivo, 336 h
[11] = Acute toxicity in po dosed ICR mouse assessed as lethal dose measured after 2 weeks; assay type: organism-based; details: in vivo
Zika virus [12] = experiment: Antiviral activity against Zika virus infected in infected in golden hamster BHK cells assessed as inhibition of viral RNA production at stage III incubated for 24 hrs by qRT-PCR analysis; assay type: functional, organism-based
Zika virus [13] = experiment: Antiviral activity against Zika virus infected in golden hamster BHK cells assessed as inhibition of viral RNA production at stage IV pre-infected with virus for 2 hrs followed by compound addition and measured 24 hrs post infection by qRT-PCR analysis; assay type: functional, organism-based; details: time 22.0 hrs

Compound: Oc1ccc(CNC[C@H]2O[C@@H](n3cnc4c(NCc5cccc(Cl)c5)ncnc43)[C@H](O)[C@@H]2O)cc1
- IC50 (Zika virus [1]): 25.8 µM

Compound: O[C@@H]1[C@H](O)[C@@H](CNC2CCCC2)O[C@H]1n1cnc2c(NCc3cccc(Cl)c3)ncnc21
- IC50 (Zika virus [1]): 8.49 µM

Compound: CCOC(=O)C1CCN(C[C@H]2O[C@@H](n3cnc4c(NCc5cccc(Cl)c5)ncnc43)[C@H](O)[C@@H]2O)CC1
- IC50 (Zika virus [1]): 26.8 µM

Compound: O[C@@H]1[C@H](O)[C@@H](CNCc2ccc(OC(F)(F)F)cc2)O[C@H]1n1cnc2c(NCc3cccc(Cl)c3)ncnc21
- IC50 (Zika virus [1]): 2.04 µM

Compound: O[C@@H]1[C@H](O)[C@@H](CNCc2ccc(C(F)(F)F)cc2)O[C@H]1n1cnc2c(NCc3cccc(F)c3)ncnc21
- IC50 (Zika virus [1]): 4.18 µM

Compound: O[C@@H]1[C@H](O)[C@@H](CNCc2ccccc2)O[C@H]1n1cnc2c(NCc3cccc(Cl)c3)ncnc21
- IC50 (Zika virus [1]): 4.57 µM

Compound: CNc1ncnc2c1ncn2[C@@H]1O[C@H](CNCc2ccc(C(F)(F)F)cc2)[C@@H](O)[C@H]1O
- IC50 (Zika virus [1]): > 50 µM

Compound: O[C@@H]1[C@H](O)[C@@H](CNCc2ccc(Br)cc2)O[C@H]1n1cnc2c(NCc3cccc(Cl)c3)ncnc21
- IC50 (Zika virus [1]): 2.2 µM

Compound: CCN(CC)C[C@H]1O[C@@H](n2cnc3c(NCc4cccc(Cl)c4)ncnc32)[C@H](O)[C@@H]1O
- IC50 (Zika virus [1]): 8.43 µM

Compound: O[C@@H]1[C@H](O)[C@@H](CNCc2ccc3ccccc3c2)O[C@H]1n1cnc2c(NCc3cccc(Cl)c3)ncnc21
- IC50 (Zika virus [1]): 1.45 µM

Compound: O[C@@H]1[C@H](O)[C@@H](CNCc2cccs2)O[C@H]1n1cnc2c(NCc3cccc(Cl)c3)ncnc21
- IC50 (Zika virus [1]): 6.06 µM

Compound: COc1ccc(CNC[C@H]2O[C@@H](n3cnc4c(NCc5cccc(Cl)c5)ncnc43)[C@H](O)[C@@H]2O)cc1
- IC50 (Zika virus [1]): 5.01 µM

Compound: O[C@@H]1[C@H](O)[C@@H](CNCc2ccc(C(F)(F)F)cc2)O[C@H]1n1cnc2c(NCc3ccco3)ncnc21
- IC50 (Zika virus [1]): 13.2 µM

Compound: Nc1ncnc2c1ncn2[C@@H]1O[C@H](CNCc2ccc(C(F)(F)F)cc2)[C@@H](O)[C@H]1O
- IC50 (Zika virus [1]): > 50 µM

Compound: O[C@@H]1[C@H](O)[C@@H](CNCc2ccc(C(F)(F)F)cc2)O[C@H]1n1cnc2c(NCC3CCC3)ncnc21
- IC50 (Zika virus [1]): > 50 µM

Compound: O=C(NC[C@H]1O[C@@H](n2cnc3c(NCc4cccc(Cl)c4)ncnc32)[C@H](O)[C@@H]1O)c1ccc(F)cc1
- IC50 (Zika virus [1]): > 50 µM

Compound: C[C@@]1(O)[C@H](O)[C@@H](CO)O[C@H]1n1cnc2c(N)ncnc21
- IC50 (Zika virus [2]): 1.76 µM

Compound: O[C@@H]1[C@H](O)[C@@H](CNCc2ccc(F)cc2)O[C@H]1n1cnc2c(NCc3cccc(Cl)c3)ncnc21
- IC50 (Zika virus [1]): 3.35 µM

Compound: CCN(C)c1ncnc2c1ncn2[C@@H]1O[C@H](CNCc2ccc(C(F)(F)F)cc2)[C@@H](O)[C@H]1O
- IC50 (Zika virus [1]): 24.9 µM

Compound: CN(Cc1ccc(F)cc1)C[C@H]1O[C@@H](n2cnc3c(NCc4cccc(Cl)c4)ncnc32)[C@H](O)[C@@H]1O
- IC50 (Zika virus [1]): 5.76 µM

Compound: CCNC[C@H]1O[C@@H](n2cnc3c(NCc4cccc(Cl)c4)ncnc32)[C@H](O)[C@@H]1O
- IC50 (Zika virus [1]): 14.7 µM

Compound: OC1CCN(C[C@H]2O[C@@H](n3cnc4c(NCc5cccc(Cl)c5)ncnc43)[C@H](O)[C@@H]2O)CC1
- IC50 (Zika virus [1]): > 50 µM

Compound: CC1CCCCN1C[C@H]1O[C@@H](n2cnc3c(NCc4cccc(Cl)c4)ncnc32)[C@H](O)[C@@H]1O (some centres undefined)
- IC50 (Zika virus [1]): 5.67 µM

Compound: O[C@@H]1[C@H](O)[C@@H](CN2CCC3(CCNCC3)CC2)O[C@H]1n1cnc2c(NCc3cccc(Cl)c3)ncnc21
- IC50 (Zika virus [1]): > 50 µM

Compound: CC(C)NC[C@H]1O[C@@H](n2cnc3c(NCc4cccc(Cl)c4)ncnc32)[C@H](O)[C@@H]1O
- IC50 (Zika virus [1]): 6.36 µM

Compound: Cc1cccc(CNc2ncnc3c2ncn3[C@@H]2O[C@H](CNCc3ccc(C(F)(F)F)cc3)[C@@H](O)[C@H]2O)c1
- IC50 (Zika virus [1]): 5.55 µM

Compound: O[C@@H]1[C@H](O)[C@@H](CNCc2ccncc2)O[C@H]1n1cnc2c(NCc3cccc(Cl)c3)ncnc21
- IC50 (Zika virus [1]): > 50 µM

Compound: COc1cccc(CNc2ncnc3c2ncn3[C@@H]2O[C@H](CNCc3ccc(C(F)(F)F)cc3)[C@@H](O)[C@H]2O)c1
- IC50 (Zika virus [1]): 7.5 µM

Compound: O[C@@H]1[C@H](O)[C@@H](CN2CCCCC2)O[C@H]1n1cnc2c(NCc3cccc(Cl)c3)ncnc21
- IC50 (Zika virus [1]): > 50 µM

Compound: O[C@@H]1[C@H](O)[C@@H](CNCc2ccc(C(F)(F)F)cc2)O[C@H]1n1cnc2c(NCC3CCCCC3)ncnc21
- IC50 (Zika virus [1]): > 50 µM

Compound: O[C@@H]1[C@H](O)[C@@H](CNCc2ccc(Cl)cc2)O[C@H]1n1cnc2c(NCc3cccc(Cl)c3)ncnc21
- IC50 (Zika virus [1]): 2.7 µM

Compound: Nc1ncnc2c1ncn2[C@@H]1O[C@H](C[C@@H](N)CC[C@H](N)C(=O)O)[C@@H](O)[C@H]1O
- inhibition (Zika virus [3]): 67.5%

Compound: CC1CCCN(C[C@H]2O[C@@H](n3cnc4c(NCc5cccc(Cl)c5)ncnc43)[C@H](O)[C@@H]2O)C1 (some centres undefined)
- half-life [4]: 3.56 h
- IC50 (Zika virus [1]): 1.4 µM
- Tmax [5]: 0.5 h
- Cmax [6]: 0.837 µg/mL
- AUC(0-t) at 24 h [7]: 2.91 µg·h/mL
- MRT [8]: 3.95 h
- Activity [9]: Non-Toxic
- Activity [10]: Non-Toxic
- LD50 at 336 h [11]: > 200 mg/kg

Compound: N#Cc1cccc(CNc2ncnc3c2ncn3[C@@H]2O[C@H](CNCc3ccc(C(F)(F)F)cc3)[C@@H](O)[C@H]2O)c1
- IC50 (Zika virus [1]): > 50 µM

Compound: O[C@@H]1[C@H](O)[C@@H](CNCc2cccc(F)c2)O[C@H]1n1cnc2c(NCc3cccc(Cl)c3)ncnc21
- IC50 (Zika virus [1]): 5.76 µM

Compound: O[C@@H]1[C@H](O)[C@@H](CNCc2ccc(C(F)(F)F)cc2)O[C@H]1n1cnc2c(NCc3ccccc3Cl)ncnc21
- IC50 (Zika virus [1]): > 50 µM

Compound: CC1CCN(C[C@H]2O[C@@H](n3cnc4c(NCc5cccc(Cl)c5)ncnc43)[C@H](O)[C@@H]2O)CC1
- IC50 (Zika virus [1]): 6.58 µM

Compound: CC(C)N1CCN(C[C@H]2O[C@@H](n3cnc4c(NCc5cccc(Cl)c5)ncnc43)[C@H](O)[C@@H]2O)CC1
- IC50 (Zika virus [1]): > 50 µM

Compound: O[C@@H]1[C@H](O)[C@@H](CNCc2cccc3ccccc23)O[C@H]1n1cnc2c(NCc3cccc(Cl)c3)ncnc21
- IC50 (Zika virus [1]): 3.58 µM

Compound: O[C@@H]1[C@H](O)[C@@H](CNCc2ccc(C(F)(F)F)cc2)O[C@H]1n1cnc2c(NCc3cccc(C(F)(F)F)c3)ncnc21
- IC50 (Zika virus [1]): > 50 µM

Compound: O[C@@H]1[C@H](O)[C@@H](CN2CCOCC2)O[C@H]1n1cnc2c(NCc3cccc(Cl)c3)ncnc21
- IC50 (Zika virus [1]): > 50 µM

Compound: O[C@@H]1[C@H](O)[C@@H](CNC2CCCCC2)O[C@H]1n1cnc2c(NCc3cccc(Cl)c3)ncnc21
- IC50 (Zika virus [1]): 5.28 µM

Compound: O=[N+]([O-])c1ccc(CNC[C@H]2O[C@@H](n3cnc4c(NCc5cccc(Cl)c5)ncnc43)[C@H](O)[C@@H]2O)cc1
- IC50 (Zika virus [1]): 7.52 µM

Compound: C#C[C@@]1(O)[C@H](O)[C@@H](CO)O[C@H]1n1ccc2c(N)ncnc21
- IC50 (Zika virus [1]): 0.85 µM
- Activity (Zika virus [12]): Active
- Activity (Zika virus [13]): Active

Compound: O[C@@H]1[C@H](O)[C@@H](CNC2CCC2)O[C@H]1n1cnc2c(NCc3cccc(Cl)c3)ncnc21
- IC50 (Zika virus [1]): 7.28 µM

Compound: O[C@@H]1[C@H](O)[C@@H](CNCc2ccc(C(F)(F)F)cc2)O[C@H]1n1cnc2c(NCc3ccc(Cl)cc3)ncnc21
- IC50 (Zika virus [1]): > 50 µM

Compound: CCN1CCN(C[C@H]2O[C@@H](n3cnc4c(NCc5cccc(Cl)c5)ncnc43)[C@H](O)[C@@H]2O)CC1
- IC50 (Zika virus [1]): > 50 µM

Compound: O[C@@H]1[C@H](O)[C@@H](CNCc2ccc(C(F)(F)F)cc2)O[C@H]1n1cnc2c(NCc3cccs3)ncnc21
- IC50 (Zika virus [1]): > 50 µM

Compound: O[C@@H]1[C@H](O)[C@@H](CN2CCCC2)O[C@H]1n1cnc2c(NCc3cccc(Cl)c3)ncnc21
- IC50 (Zika virus [1]): 17.5 µM
